# Target: T1, human orexin type 2 receptor (Homo sapiens, UniProt O43614)
# T1 construct: expressed in transfected cells
# T1 sequence (O43614 1-444): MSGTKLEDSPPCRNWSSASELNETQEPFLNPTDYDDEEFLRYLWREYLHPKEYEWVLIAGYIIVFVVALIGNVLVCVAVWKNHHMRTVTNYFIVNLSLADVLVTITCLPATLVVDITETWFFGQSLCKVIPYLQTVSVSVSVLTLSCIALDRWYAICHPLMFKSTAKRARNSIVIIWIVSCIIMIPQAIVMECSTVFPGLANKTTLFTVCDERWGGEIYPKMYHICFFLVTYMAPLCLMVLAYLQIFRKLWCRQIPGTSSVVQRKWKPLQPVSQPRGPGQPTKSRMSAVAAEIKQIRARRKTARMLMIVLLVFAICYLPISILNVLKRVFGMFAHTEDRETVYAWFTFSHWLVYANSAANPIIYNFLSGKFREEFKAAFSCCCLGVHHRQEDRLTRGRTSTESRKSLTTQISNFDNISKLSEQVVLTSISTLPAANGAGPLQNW
# Assay: Measurement of orexin type 2 receptor agonist activity (calcium fluorescence, Fluo-4 AM, CHO cells forcibly expressing human OX2 receptor)
# Type: cell-based
# Conditions: test compound 3 μM, DMSO = 0%, orexin A (human) 10 nM = 100%
# Excerpt: To obtain a cell clone stably expressing human orexin type 2 receptor, human orexin type 2 receptor cDNA was inserted into pcDNA3.1(+) plasmid vector (Invitrogen), and a plasmid DNA for expression of human orexin type 2 receptor (pcDNA3.1(+)/hOX2R) was cloned. The plasmid DNA was introduced into CHO-dhfr cell by an electroporation method, and human orexin type 2 receptor expressing clone cells were obtained by limiting dilution method by using G418 drug resistance as a selection marker.
# CHO cells forcibly expressing human OX2 receptor were seeded in each well of 384 well black transparent bottom plate (BD Falcon) at 7,500 cells/well, and cultured for one day in a 5% CO2 incubator at 37° C. After removal of the medium in the cell plate, assay buffer A containing a calcium indicator (HBSS (Thermo Fisher Scientific), 20 mM HEPES (Thermo Fisher Scientific), 0.1% BSA (Sigma-Aldrich), 2.5 μg/mL Fluo-4 AM (DOJINDO Chemical), 0.08% Pluronic F127 (DOJINDO Chemical), 1.25 mM probenecid (DOJINDO Chemical)) was added at 30 μL/well. The plate was stood for 30 min in a 5% CO2 incubator at 37° C., and further stood at room temperature for 30 min. A test compound prepared by diluting with assay buffer B (HBSS, 20 mM HEPES, 0.1% BSA) was added at 10 μL/well, and the fluorescence value was measured by FDSSpCELL (Hamamatsu Photonics K. K.) every one sec for 1 min, and thereafter every two sec for 1 min 40 sec. The activity (%) of the test compound was calculated assuming that variation in the fluorescence value when DMSO was added instead of the test compound was 0%, and variation in the fluorescence value when orexin A (human) (PEPTIDE INSTITUTE, INC.) was added at the final concentration of 10 nM was 100%.
row,Structure (SMILES),"OX2R agonist activity (3 μM, %)"
1,"CC(C)c1cc2n(n1)[C@@H](Cc1cccc(-c3ccccc3)c1)[C@@H](NS(C)(=O)=O)CC2 (racemic) [Example 23, rac-N-[(6S,7S)-7-[([1,1′-biphenyl]-3-yl)methyl]-2-(propan-2-yl)-4,5,6,7-tetrahydropyrazolo[1,5-a]pyridin-6-yl]methanesulfonamide]",109%
2,"CCc1nn2c(c1Cl)CC[C@H](NS(C)(=O)=O)[C@@H]2COC1CCN(c2ncccn2)CC1 (racemic) [Example 32, rac-N-[(6S,7R)-3-chloro-2-ethyl-7-({[1-(pyrimidin-2-yl)piperidin-4-yl]oxy}methyl)-4,5,6,7-tetrahydropyrazolo[1,5-a]pyridin-6-yl]methanesulfonamide]",92%
3,"CC(C)c1cc2n(n1)[C@@H](COC1CCN(c3ccccc3F)CC1)[C@@H](NS(C)(=O)=O)CC2 (racemic) [Example 29, rac-N-[(6S,7R)-7-({[1-(2-fluorophenyl)piperidin-4-yl]oxy}methyl)-2-(propan-2-yl)-4,5,6,7-tetrahydropyrazolo[1,5-a]pyridin-6-yl]methanesulfonamide]",80%
4,"Cc1nn2c(c1C)CC[C@H](NS(C)(=O)=O)[C@@H]2COC1CCN(c2ncc(F)cn2)CC1 (racemic) [Example 12, rac-N-[(6S,7R)-7-({[1-(5-fluoropyrimidin-2-yl)piperidin-4-yl]oxy}methyl)-2,3-dimethyl-4,5,6,7-tetrahydropyrazolo[1,5-a]pyridin-6-yl]methanesulfonamide]",102%
5,"Cc1nn2c(c1Cl)CC[C@H](NS(C)(=O)=O)[C@@H]2COC1CCN(c2ncc(F)cn2)CC1 (racemic) [Example 15, rac-N-[(6S,7R)-3-chloro-7-({[1-(5-fluoropyrimidin-2-yl)piperidin-4-yl]oxy}methyl)-2-methyl-4,5,6,7-tetrahydropyrazolo[1,5-a]pyridin-6-yl]methanesulfonamide]",91%
6,"Cc1nc2n(n1)C(CO[C@H]1CC[C@@H](c3ccccc3)CC1)C(NS(C)(=O)=O)CC2 (mixture of isomers) [Example 5, rac-N-[(5R,6S)-2-methyl-5-({[(1s,4S)-4-phenylcyclohexyl]oxy}methyl)-5,6,7,8-tetrahydro[1,2,4]triazolo[1,5-a]pyridin-6-yl]methanesulfonamide]",99%
7,"CC(O)c1cc2n(n1)C(Cc1cccc(-c3ccccc3)c1)C(NS(C)(=O)=O)CC2 (racemic) [Example 36, N-[(6SR,7SR)-7-[([1,1′-biphenyl]-3-yl)methyl]-2-(1-hydroxyethyl)-4,5,6,7-tetrahydropyrazolo[1,5-a]pyridin-6-yl]methanesulfonamide]",105%
8,"CCc1cc2n(n1)C(CO[C@H]1CC[C@@H](c3ccccc3)CC1)C(NS(C)(=O)=O)CC2 (mixture of isomers) [Example 2, rac-N-[(6S,7R)-2-ethyl-7-({[(1s,4S)-4-phenylcyclohexyl]oxy}methyl)-4,5,6,7-tetrahydropyrazolo[1,5-a]pyridin-6-yl]methanesulfonamide]",107%
9,"CCc1cc2n(n1)[C@@H](COC1CCN(c3ncccn3)CC1)[C@@H](NS(C)(=O)=O)CC2 (racemic) [Example 28, rac-N-[(6S,7R)-2-ethyl-7-({[1-(pyrimidin-2-yl)piperidin-4-yl]oxy}methyl)-4,5,6,7-tetrahydropyrazolo[1,5-a]pyridin-6-yl]methanesulfonamide]",102%

# Second part, the molecule after the results:
row,"OX2R agonist activity (3 μM, %)",Structure (SMILES)
1,96%,"CCc1cc2n(n1)[C@@H](COC1CCN(c3ncc(F)c(OC)n3)CC1)[C@@H](NS(C)(=O)=O)CC2 (racemic) [Example 40, rac-N-[(6S,7R)-2-ethyl-7-({[1-(5-fluoro-4-methoxypyrimidin-2-yl)piperidin-4-yl]oxy}methyl)-4,5,6,7-tetrahydropyrazolo[1,5-a]pyridin-6-yl]methanesulfonamide]"
2,94%,"CC(C)n1cc2c(n1)[C@@H](COC1CCN(c3ncc(F)cn3)CC1)[C@@H](NS(C)(=O)=O)CC2 (racemic) [Example 44, rac-N-[(6S,7S)-7-({[1-(5-fluoropyrimidin-2-yl)piperidin-4-yl]oxy}methyl)-2-(propan-2-yl)-4,5,6,7-tetrahydro-2H-indazol-6-yl]methanesulfonamide]"
3,95%,"CCS(=O)(=O)N[C@H]1CCn2cc(C)nc2[C@H]1Cc1cccc(-c2cccc(F)c2)c1 (relative stereo) [Example 58, rel-N-{(7S,8S)-8-[(3′-fluoro[1,1′-biphenyl]-3-yl)methyl]-2-methyl-5,6,7,8-tetrahydroimidazo[1,2-a]pyridin-7-yl}ethanesulfonamide]"
4,101%,"CCc1cc2n(n1)[C@@H](COC1CCN(c3ncccn3)CC1)[C@@H](NS(C)(=O)=O)CC2 (relative stereo) [Example 59, rel-N-[(6S,7R)-2-ethyl-7-({[1-(pyrimidin-2-yl)piperidin-4-yl]oxy}methyl)-4,5,6,7-tetrahydropyrazolo[1,5-a]pyridin-6-yl]methanesulfonamide]"
5,80%,"CCc1cc2n(n1)[C@@H](COC1CCN(c3ccccn3)CC1)[C@@H](NS(C)(=O)=O)CC2 (racemic) [Example 42, rac-N-[(6S,7R)-2-ethyl-7-({[1-(pyridin-2-yl)piperidin-4-yl]oxy}methyl)-4,5,6,7-tetrahydropyrazolo[1,5-a]pyridin-6-yl]methanesulfonamide]"
6,100%,"CC(C)c1cc2n(n1)[C@@H](COC1CCN(c3ncccn3)CC1)[C@@H](NS(C)(=O)=O)CC2 (relative stereo) [Example 56, rel-N-[(6S,7R)-2-(propan-2-yl)-7-({[1-(pyrimidin-2-yl)piperidin-4-yl]oxy}methyl)-4,5,6,7-tetrahydropyrazolo[1,5-a]pyridin-6-yl]methanesulfonamide]"
